Measured values published in patent US20250320213A1, “Nitrogen-Containing Heterocyclic Compounds” (Pfizer Inc., priority 2024, published 2025).
Like-named read-outs stand apart in the source and are kept apart here.

Key:
STAT6 = target: T1, STAT6 (Homo sapiens, UniProt P42226); test: STAT6 Reporter Luciferase Assay (IL-13 stimulated HaCaT keratinocyte NanoLuc reporter cells); assay type: cell-based; details: read-out: Reporter EC50
T1 construct: stably transfected HaCaT keratinocyte cell line, which expresses NanoLuc luciferase reporter gene under the transcriptional control of the STAT6 responsive promoter; endogenous in cells; host or cells: HaCaT keratinocyte reporter cell line (stably transfected with a NanoLuc reporter)
T1 sequence (P42226 1-847): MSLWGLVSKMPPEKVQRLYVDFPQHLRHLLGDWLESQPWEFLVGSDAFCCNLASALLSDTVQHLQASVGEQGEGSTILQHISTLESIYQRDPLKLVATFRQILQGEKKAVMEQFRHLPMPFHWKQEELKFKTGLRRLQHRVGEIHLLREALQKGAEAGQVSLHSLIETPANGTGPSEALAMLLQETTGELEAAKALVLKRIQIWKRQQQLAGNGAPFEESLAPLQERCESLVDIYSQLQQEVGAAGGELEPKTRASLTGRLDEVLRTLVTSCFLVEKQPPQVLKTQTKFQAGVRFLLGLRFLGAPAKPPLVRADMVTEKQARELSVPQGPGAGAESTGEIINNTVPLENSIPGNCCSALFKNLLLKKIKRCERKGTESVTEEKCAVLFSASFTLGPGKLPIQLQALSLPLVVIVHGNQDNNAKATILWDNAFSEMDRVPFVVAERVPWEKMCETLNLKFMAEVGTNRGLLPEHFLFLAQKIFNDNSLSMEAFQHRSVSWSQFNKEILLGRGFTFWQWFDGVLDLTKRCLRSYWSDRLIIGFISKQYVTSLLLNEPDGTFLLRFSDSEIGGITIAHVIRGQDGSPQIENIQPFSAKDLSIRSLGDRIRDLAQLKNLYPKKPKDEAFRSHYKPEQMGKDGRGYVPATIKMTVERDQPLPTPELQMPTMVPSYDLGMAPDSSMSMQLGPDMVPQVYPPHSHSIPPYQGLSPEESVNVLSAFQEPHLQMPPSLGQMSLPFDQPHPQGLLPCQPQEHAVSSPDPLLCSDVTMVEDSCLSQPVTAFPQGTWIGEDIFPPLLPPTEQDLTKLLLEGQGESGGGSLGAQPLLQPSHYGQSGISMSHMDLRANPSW
Summary of the method: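 HaCaT cells stably carrying a NanoLuc reporter driven by the STAT6-responsive IL-13Ra2 promoter were preincubated with compounds for 2 h at 37 °C in 2% FBS medium. Cells were then stimulated with 0.12 nM IL-13 for 4 h, and luminescence was read after Nano-Glo substrate. Compounds ran as 11-point 4-fold dilutions in duplicate.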

[1] = tested on: CCL17 secretion in peripheral human whole blood; test: Human Whole Blood (HWB) CCL17 TR-FRET Assay (IL-13 stimulated CCL17 secretion); assay type: cell-based; details: Homo sapiens, 48 h
Summary of the method: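 IC50 values reflect inhibition of IL-13-driven CCL17 release in human whole blood. Blood was preincubated with compound 2 h, stimulated 48 h at 37 °C with IL-13 (10 ng/mL final), and serum CCL17 was measured by TR-FRET.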

[2] = IL-13 stimulated HaCaT STAT6 NanoLuc reporter cells
[3] = STAT6 NanoLuc luciferase reporter, IL-13 stimulated HaCaT keratinocyte cells
[4] = inhibition of CCL17 secretion in human whole blood, 10 ng/mL IL13, 48 hours
[5] = human whole blood, IL-13 stimulated
[6] = human whole blood, 10 ng/mL IL13, 48 hours

Structure (SMILES)	EC50 (STAT6; [2])	IC50 [1, 5]	also measured
CCn1nc(C(=O)NCc2ccc(NC(=O)N3CC(NC)C3)c(F)c2)c2c1[C@@H](C)CN(c1ccc(C(=O)N(C)C)cc1)C2 [Example 716, (S)-5-(4-(dimethylcarbamoyl)phenyl)-1-ethyl-N-(3-fluoro-4-(3-(methylamino)azetidine-1-carboxamido)benzyl)-7-methyl-4,5,6,7-tetrahydro-1H-pyrazolo[4,3-c]pyridine-3-carboxamide]	3 nM		IC50 ([1]; human whole blood, IL-13 10 ng/mL): 25 nM
CC(C)n1nc(C(=O)NCc2ccc(NC(=O)N(C)C)cc2)c2c1CCN(c1ccc(C(=O)N(C)C)cn1)C2 [Example 2, 5-(5-(Dimethylcarbamoyl)pyridin-2-yl)-N-(4-(3,3-dimethylureido)benzyl)-1-isopropyl-4,5,6,7-tetrahydro-1H-pyrazolo[4,3-c]pyridine-3-carboxamide]			EC50 (STAT6; [3]): 8 nM; IC50 [1, 4]: 69 nM
CCn1nc(C(=O)NCc2ccc(NC(=O)N3CCN(C)CC3)cc2)c2c1[C@@H](C)CN(c1ccc(C(=O)N(C)C)cc1)C2 [Example 398, (S)-5-(4-(dimethylcarbamoyl)phenyl)-1-ethyl-7-methyl-N-(4-(4-methylpiperazine-1-carboxamido)benzyl)-4,5,6,7-tetrahydro-1H-pyrazolo[4,3-c]pyridine-3-carboxamide]	0.3 nM	7 nM	
CC(C)n1nc(C(=O)NCc2ccc(NC(=O)N(C)C)cc2)c2c1CCN(c1ccc(C3CCCO3)cn1)C2 (single isomer, unassigned) [Example 361, rel-(R or S)-N-(4-(3,3-dimethylureido)benzyl)-1-isopropyl-5-(5-(tetrahydrofuran-2-yl)pyridin-2-yl)-4,5,6,7-tetrahydro-1H-pyrazolo[4,3-c]pyridine-3-carboxamide]	158 nM	> 4080 nM	
CC(C1CC1)n1nc(C(=O)NCc2ccc(NC(=O)N(C)C)cc2)c2c1CCN(c1ccc(C(=O)N(C)C)cn1)C2 (racemic) [Example 62, rac-(R)-1-(1-cyclopropylethyl)-5-(5-(dimethylcarbamoyl)pyridin-2-yl)-N-(4-(3,3-dimethylureido)benzyl)-4,5,6,7-tetrahydro-1H-pyrazolo[4,3-c]pyridine-3-carboxamide]			EC50 (STAT6; [3]): 9 nM; IC50 [1, 4]: 66 nM
CC(C)n1nc(C(=O)NCc2ccc(-c3ncc[nH]3)cc2)c2c1[C@@H](C)CN(c1ncc(C(=O)N(C)C)cn1)C2 (single isomer, unassigned) [Example 335]	1 nM	5 nM	
CCn1nc(C(=O)NCc2ccc(NC(=O)N(C)C)cc2)c2c1CCN(c1ncc(C(=O)N(C)C)cn1)[C@H]2C (single isomer, unassigned) [Example 510]	1520 nM	8830 nM	
CC(C)n1nc(C(=O)NCc2ccc(NC(=O)N3CCN(C)CC3)cc2)c2c1[C@@H](C)CN(c1ccc(-c3ncnn3C3CC3)cn1)C2 [Example 649, (S)-5-(5-(1-cyclopropyl-1H-1,2,4-triazol-5-yl)pyridin-2-yl)-1-isopropyl-7-methyl-N-(4-(4-methylpiperazine-1-carboxamido)benzyl)-4,5,6,7-tetrahydro-1H-pyrazolo[4,3-c]pyridine-3-carboxamide]	1 nM		IC50 [1, 6]: 24 nM
CC(C)n1nc(C(=O)NCc2ccc(NC(=O)N(C)C)cc2)c2c1[C@@H](C)CN(c1ncc(C(=O)NCc3ccc(NC(=O)N(C)C)cc3)cn1)C2 [Example 500, (S)-N-(4-(3,3-dimethylureido)benzyl)-5-(5-((4-(3,3-dimethylureido)benzyl)carbamoyl)pyrimidin-2-yl)-1-isopropyl-7-methyl-4,5,6,7-tetrahydro-1H-pyrazolo[4,3-c]pyridine-3-carboxamide]	11 nM	104 nM	
CC(C)n1nc(C(=O)NCc2ccc(NC(=O)N(C)C)cn2)c2c1C[C@H](C)N(c1ncc(C(=O)N(C)C)cn1)C2 [Example 533, (S)-5-(5-(dimethylcarbamoyl)pyrimidin-2-yl)-N-((5-(3,3-dimethylureido)pyridin-2-yl)methyl)-1-isopropyl-6-methyl-4,5,6,7-tetrahydro-1H-pyrazolo[4,3-c]pyridine-3-carboxamide]	5 nM		IC50 [1, 6]: 18 nM
CC(C)n1nc(C(=O)NCc2ccc(NC(=O)N(C)C)cc2)c2c1[C@@H](C)CN(c1ccc(C(=O)NCc3ccc(NC(=O)N(C)C)cc3)cn1)C2 [Example 501, (S)-N-(4-(3,3-dimethylureido)benzyl)-5-(5-((4-(3,3-dimethylureido)benzyl)carbamoyl)pyridin-2-yl)-1-isopropyl-7-methyl-4,5,6,7-tetrahydro-1H-pyrazolo[4,3-c]pyridine-3-carboxamide]	7 nM	50 nM	
CC(C)n1nc(C(=O)NCc2ccc(NC(=O)N(C)C)cc2)c2c1CCN(c1ccc(N3CC4(CC4)CC3=O)cn1)C2 [Example 97, N-(4-(3,3-dimethylureido)benzyl)-1-isopropyl-5-(5-(6-oxo-5-azaspiro[2.4]heptan-5-yl)pyridin-2-yl)-4,5,6,7-tetrahydro-1H-pyrazolo[4,3-c]pyridine-3-carboxamide]			EC50 (STAT6; [3]): 65 nM; IC50 [1, 4]: 3480 nM
C[C@H]1CN(c2ncc(-c3nccn3C)cn2)Cc2c(C(=O)NCc3ccc(NC(=O)N(C)C)cc3)nn(C)c21 [Example 502, (S)-N-(4-(3,3-dimethylureido)benzyl)-1,7-dimethyl-5-(5-(1-methyl-1H-imidazol-2-yl)pyrimidin-2-yl)-4,5,6,7-tetrahydro-1H-pyrazolo[4,3-c]pyridine-3-carboxamide]	813 nM	7550 nM	
CN(C)C(=O)Nc1ccc(CNC(=O)c2nn(C3CCOC3)c3c2CN(c2ccc(C(=O)N(C)C)cn2)CC3)cc1 (racemic) [Example 90, rac-(R)-5-(5-(dimethylcarbamoyl)pyridin-2-yl)-N-(4-(3,3-dimethylureido)benzyl)-1-(tetrahydrofuran-3-yl)-4,5,6,7-tetrahydro-1H-pyrazolo[4,3-c]pyridine-3-carboxamide]			EC50 (STAT6; [3]): 25 nM; IC50 [1, 4]: 67 nM
CC(C)n1nc(C(=O)NCc2ccc(NC(=O)N3CCC(C)(C#N)CC3)cc2)c2c1[C@@H](C)CN(c1ccc(C(=O)N(C)C)cn1)C2 [Example 593, (S)-N-(4-(4-cyano-4-methylpiperidine-1-carboxamido)benzyl)-5-(5-(dimethylcarbamoyl)pyridin-2-yl)-1-isopropyl-7-methyl-4,5,6,7-tetrahydro-1H-pyrazolo[4,3-c]pyridine-3-carboxamide]	1 nM		IC50 [1, 6]: 12 nM
CC(C)n1nc(C(=O)Nc2cccc(C(N)=O)c2F)c2c1[C@@H](C)CN(c1ccc(C(=O)N(C)C)cn1)C2 [Example 458, (S)-N-(3-carbamoyl-2-fluorophenyl)-5-(5-(dimethylcarbamoyl)pyridin-2-yl)-1-isopropyl-7-methyl-4,5,6,7-tetrahydro-1H-pyrazolo[4,3-c]pyridine-3-carboxamide]	173 nM	> 7650 nM	
CC(C)n1nc(C(=O)NCc2ccc(NC(=O)NCC(F)F)cc2)c2c1[C@@H](C)CN(c1ccc(C(=O)N(C)C)cn1)C2 [Example 579, (S)-N-(4-(3-(2,2-difluoroethyl)ureido)benzyl)-5-(5-(dimethylcarbamoyl)pyridin-2-yl)-1-isopropyl-7-methyl-4,5,6,7-tetrahydro-1H-pyrazolo[4,3-c]pyridine-3-carboxamide]	0.4 nM		IC50 [1, 6]: 8 nM
Cc1nn(C)c(=O)n1-c1ccc(CNC(=O)c2nn(C(C)C)c3c2CN(c2ccc(C(=O)N(C)C)cn2)C[C@@H]3C)cc1 [Example 471, (S)-N-(4-(1,3-dimethyl-5-oxo-1,5-dihydro-4H-1,2,4-triazol-4-yl)benzyl)-5-(5-(dimethylcarbamoyl)pyridin-2-yl)-1-isopropyl-7-methyl-4,5,6,7-tetrahydro-1H-pyrazolo[4,3-c]pyridine-3-carboxamide]	432 nM	3290 nM	
